The results in this text go back to ChEMBL document CHEMBL1136459, “New antibacterial tetrahydro-4(2H)-thiopyran and thiomorpholine S-oxide and S,S-dioxide phenyloxazolidinones” (Bioorg Med Chem Lett, 2003).

Converted amounts (≈) assume the structure as drawn. Some results are limits rather than exact numbers.

One test deals with Haemophilus influenzae. As to the kind of experiment: In vitro antibacterial activity against Haemophilia influenzae strains 30063 and ATCC 31517 (HI); range is 4-16. It is filed as functional.
The subject of a further test is Moraxella catarrhalis. As to the kind of experiment: In vitro antibacterial activity against Moraxella catarrhalis strains 30607 and 30603 (MC); range is 8-16. Format: functional.
Test [1] deals with Staphylococcus aureus. Nature of the test: In vitro antibacterial activity against Staphylococcus aureus strains UC12673, UC9213, ATCC 29213, and UC9271 (SA). It is filed as functional.
The subject of test [2] is Staphylococcus epidermidis. Nature of the test: In vitro antibacterial activity against Staphylococcus epidermidis strains UC12084, 30031, and CDC-CNS90 (SE); range is 0.13-2. It is filed as functional.
In test [3] the test system is Staphylococcus aureus. Nature of the test: In vitro antibacterial activity against linezolid-resistant Staphylococcus aureus ATCC 29213 (LRSA). It is filed as functional.
The test system of the next test is Enterococcus faecium. As to the kind of experiment: In vitro antibacterial activity against vancomycin-resistant Enterococcus faecium UC12712 (VRE).
The test system of another test is Streptococcus pneumoniae. Nature of the test: In vitro antibacterial activity against Streptococcus pneumoniae strains ATCC 6305 and 31573 (SPN); range is 1-2.

For `NC(=O)NC[C@H]1CN(c2ccc(C3CCS(=O)(=O)CC3)c(F)c2)C(=O)O1`, the MIC was > 4 µg/mL against Haemophilus influenzae; > 8 µg/mL with Moraxella catarrhalis; 16 µg/mL (≈ 41.5 µM) with Staphylococcus aureus [1]; 0.13 µg/mL (≈ 0.337 µM) in test [2]; > 64 µg/mL against Staphylococcus aureus [3]; 4 µg/mL (≈ 10.4 µM) against Enterococcus faecium. Besides, the MIC with Streptococcus pneumoniae turned out to be 1 µg/mL (≈ 2.59 µM).
